Where “and” joins values, the source holds several entries; their conditions need not be identical. Equal entries are not always repeated.
Settings: Liquid, Diaphragm manometer

Cl[Si](Cl)(Cl)Cl [silicon tetrachloride]
Settings	vapor or sublimation pressure
332.99 K	113.02 kPa
340 K	139.15 kPa and 138.98 kPa
350.01 K	185.05 kPa
360 K	241.64 kPa
370 K	311.49 kPa
380 K	395.69 kPa
390 K	495.9 kPa
400 K	614 kPa

Cl[SiH2]Cl [dichlorosilane]
Settings	vapor or sublimation pressure
299.99 K	214.5 kPa [middle of 4 runs]
300 K	216.5 kPa and 212.1 kPa and 214.2 kPa
309.99 K	284.3 kPa
319.98 K	377.6 kPa
319.99 K	377.9 kPa
320 K	380.4 kPa and 381.43 kPa and 377.3 kPa
323.01 K	407.8 kPa
329.99 K	485.8 kPa
330.02 K	492.2 kPa
339.99 K	626.4 kPa [middle of 4 runs]
340 K	628.6 kPa
343.01 K	672.6 kPa
349.99 K	784.7 kPa and 786.4 kPa and 789 kPa
350 K	785 kPa
359.98 K	981.9 kPa
359.99 K	985.9 kPa [middle of 4 runs]
362.99 K	1052.1 kPa
369.98 K	1205 kPa
369.99 K	1205 kPa and 1209 kPa
379.99 K	1477 kPa [middle of 5 runs]
389.99 K	1779 kPa and 1784 kPa and 1780.5 kPa
399.99 K	2099 kPa and 2138 kPa
409.98 K	2559 kPa
410 K	2534 kPa
419.99 K	3016 kPa

Cl[SiH](Cl)Cl [trichlorosilane]
Settings	vapor or sublimation pressure [kPa]
310 K	121.89
320 K	167.53
330 K	225.35
340 K	297.4
350 K	385.6
360 K	492.1
370 K	619.6
380 K	770.2
380.5 K	778.2
385 K	854.6
390 K	946
395 K	1044.2
